Each structure is given as a SMILES string.

As to `Cc1c(F)cc(C(=O)NC2CC2)cc1-n1cc(Br)nc(NC2(c3ccccc3OCCN(C)C(=O)OCc3ccccc3)CC2)c1=O`, the melting point lay within 116 to 120 °C.

For the compound `O=c1[nH]c2ccc(N3CCOCC3)cc2c(=O)o1`, the melting point came out at 235 °C.

With `COc1ccc(S)c(C(=O)O)c1`, the melting point is 173 to 178 °C.

For the compound `CN1C2CCCC1CC(c1ccc(I)nn1)C2` (centres undefined), the melting point fell in the range of 163 to 166 °C.

`O=C(/C=C\[C@H]1CC1(c1ccccc1)c1ccccc1)NCCCCc1cccnc1`: the melting point was in the range of 115 to 116 °C.

Turning to `N#CC(c1ccc(Cl)cc1)c1ccc(-n2ncc(=O)[nH]c2=O)cc1` (centres undefined), the melting point is 206 °C.

As to `CCCCc1nc([N+](=O)[O-])c(CSc2ccccc2C(=O)O)n1Cc1ccc(C(=O)O)cc1`, the melting point fell in the range of 246 to 247 °C.

Compound `CCOP(=O)(OCC)c1cccc(OCc2ccc3ccccc3c2)c1` displayed a melting point of 55 to 57 °C.

For `Cc1ccc(-c2nc(C(F)(F)F)nc(NN)c2-c2ccccc2)cc1`, the melting point fell in the range of 188 to 191 °C.

In the case of `CN1CCN(C(=O)c2cccn2Cc2ccccc2N)CC1`, the melting point lay within 139 to 141 °C.

For the compound `O=c1oc2c3c(n(-c4ccccc4)c(=O)c2c(O)c1Sc1ccccc1)-c1ccccc1C3`, the melting point lay within 274 to 275 °C.

In turn, `COc1ccccc1S(=O)(=O)c1c(NS(=O)(=O)c2ccc(C(C)(C)C)cc2)ncnc1OCCOc1ncc(Br)cn1` showed a melting point of 208 °C.

`N#CCOC(=O)c1cccnc1SCC#N` displayed a melting point of 140 to 143 °C.

With `c1cc(COc2ccc(OCc3ccc4ccccc4n3)cc2)cc(OCc2nnn[nH]2)c1`, the melting point is 131 to 132 °C.

`CCOC(=O)c1ncn(Cc2ccc(Cl)c(Cl)c2)c1C(=O)OCC` gave a melting point of 105 to 107 °C.

For the compound `CCc1n[nH]c(=O)c2ccc(OC)cc12`, the melting point was in the range of 230 to 235 °C.

`COc1ccc2c(CCC3CCN(Cc4ccccc4)CC3)noc2c1` returned a melting point of 90.5 to 91.5 °C.

With `CCCc1cc(=O)oc2cc(OC(=O)CC)cc(O)c12`, the melting point lay within 166 to 168 °C.

In turn, `CC(=O)N(c1nc2nc(C)cc(C)n2n1)S(=O)(=O)c1c(Cl)cccc1Cl` gave a melting point of 219 to 222 °C.

`COC(=O)C1=C(O)c2ccccc2S(=O)(=O)N1C` came in with a melting point of 163 to 165 °C.

For the compound `O=C(c1cccc(Cl)c1)N1CCc2cc(S(=O)(=O)N3CCN(c4cccc(Cl)c4)CC3)ccc21`, the melting point fell in the range of 221 to 222 °C.

Regarding `COc1ccc2oc3cccc(NCCN4CCCC4)c3c(=O)c2c1`, the melting point is 92 to 93 °C.

Consider `CN(C)c1nc(N(C)C)nc(N(C)Cc2ccc(O)cc2)n1`, for which the melting point is 163 to 164 °C.

In the case of `CCOC(=O)C(C)(C)Oc1ccc(-c2ccc(CCNC(=O)c3cc(OC)c(OC)c(OC)c3)cc2)cc1`, the melting point is under 20 °C.

`CCCc1c(OCC(O)CS(=O)(=O)c2ccc(CC(=O)OC)c(Cl)c2Cl)ccc(C(C)=O)c1O` (centres undefined) displayed a melting point of 122 to 125 °C.

Compound `O=C1C(O)=C(N2CCN(c3cccc(C(F)(F)F)c3)CC2)C(=O)c2ccccc21` had a melting point of 167 to 169 °C.

The compound `O=C(O)CCNC(=O)C(=Cc1cc(F)cc(F)c1)CS` yielded a melting point of 125 °C.

Compound `CCOC(=O)c1ccc(N2CCC(NCC(O)COc3ccc(N)nc3)CC2)nc1` (centres undefined) came in with a melting point of 120 to 122 °C.

`CCCCCCCCCCCCCCCCSCC(CO)n1nnnc1C` (centres undefined) gave a melting point of 77 to 78 °C.

In turn, `CNC(=S)N1CCSC1c1ccccc1OCCN1CCC(c2ccccc2)CC1` (centres undefined) gave a melting point of 141 to 142 °C.

`CN(C(=O)CN(O)C(N)=O)c1cccc(Oc2ccccc2)c1` yielded a melting point of 110 to 112 °C.

`COc1ccc(Br)c(C=C(C#N)C(=O)O)c1OC` came in with a melting point of 130 to 132 °C.

In turn, `CC(C)Oc1cc([N+](=O)[O-])c(F)cc1C#N` returned a melting point of 116 to 118 °C.

As for `NNc1cc2c(nn1)CCCCCC2`, the melting point fell in the range of 145 to 148 °C.

`Clc1cc2nc(NCCCN3CCOCC3)c(-c3ccccn3)nc2cc1Cl` gave a melting point of 119 to 121 °C.

For the compound `CCCn1c(-c2ccccc2)nc2cc(C#N)c(C#N)cc21`, the melting point lay within 183 to 185 °C.

On to `NCc1nc(-c2ccc(-c3cnc4[nH]c(=O)n(CCC5CCOCC5)c4n3)cc2)n[nH]1`, for which the melting point fell in the range of 258 to 260 °C.

With `O=C(O)c1ccccc1C(=O)c1ccc(N2CCOCC2)cc1O`, the melting point was 184 to 187 °C.

Turning to `CC(C(=O)Nc1ccc(C(=O)c2cccs2)cc1)c1ccccc1` (centres undefined), the melting point was 140 °C.

In turn, `COc1cc2cc3c(Nc4ccc(Sc5nccn5C)c(Cl)c4)c(C#N)cnc3cc2cc1OCCCN1CCOCC1` came in with a melting point of 230 to 235 °C.

As to `COC(=O)c1ccc(NCc2ccccc2)cn1`, the melting point was 104 to 107 °C.

Compound `C#CCN1CCN(C2=Nc3cc(Cl)ccc3Nc3ccccc32)CC1` gave a melting point of 138 to 140 °C.

For the compound `Nc1nc(SCc2ccccc2)c2ncn(C3CC(F)C(CO)O3)c2n1` (centres undefined), the melting point was 150 to 151 °C.

Regarding `ClCSc1ncc(Cl)cn1`, the melting point stood at 78 °C.

The compound `COCC1(C)CC(=O)c2cc(C#N)ccc2O1` (centres undefined) yielded a melting point of 79 to 81 °C.

In turn, `COc1ccc2[nH]c(C(C)C)c(C=C3SC(=S)N(CC(=O)O)C3=O)c2c1` came in with a melting point of 255 to 260 °C.

`O=C(O)CN1C(=O)C(O)N(Cc2cccc([N+](=O)[O-])c2)C1=O` (centres undefined): the melting point fell in the range of 123 to 125 °C.

In turn, `Cc1ncc(N2N=C(c3ccc([N+](=O)[O-])cc3)c3cc4c(cc3CC2C)OCO4)o1` (centres undefined) displayed a melting point of 203 to 205 °C.

`COc1ccccc1C(=O)c1cc2ccccc2[nH]1` had a melting point of 129 to 130 °C.

On to `O=C1NCc2c1cc1ccc3c(c1c2-c1ccc(C(F)(F)F)cc1)OCO3`, for which the melting point lay within 315 to 317 °C.

Turning to `CCC(=O)OC1(C(=O)CCl)C(C)CC2C3CCC4CC(=O)CCC4(C)C3=CCC21C` (centres undefined), the melting point lay in the range of 140 to 142 °C.

Regarding `c1cncc(-c2nccs2)c1`, the melting point lay in the range of 44 to 45 °C.

`COC(=O)CCCc1cc2nc(Cl)ccc2n1S(=O)(=O)c1ccc(C)cc1`: the melting point is 106 °C.

With `COc1c(NC(=O)c2ccc(Br)cc2)cccc1[N+](=O)[O-]`, the melting point was in the range of 162 to 163 °C.

In turn, `O=C(Nc1ccccc1C(F)(F)F)c1ccccc1` came in with a melting point of 146 °C.

`CN(C)c1ncnc2c1ncn2Cc1c(Cl)cccc1Cl` returned a melting point of 174 to 175 °C.

Turning to `O=C(O)Cc1cc2c(s1)-c1ccccc1CC2`, the melting point is 103 to 105 °C.

Compound `COc1ccc(-c2ccc3c(c2)C(=O)NC3=O)c2c1OCCO2` yielded a melting point of 285 to 287 °C.

As for `CC(=O)c1cccc(C)c1NC(=O)CCBr`, the melting point was 99 to 101 °C.

As to `CNC(=O)C1CCCN1S(=O)(=O)c1ccc(N2CCC(NC[C@H](O)COc3cccc4[nH]c(=O)[nH]c34)CC2)cc1` (some centres undefined), the melting point was in the range of 36 to 39 °C.

In turn, `CCOC(=O)c1c(C)cc2c(=O)n(-c3ccccc3Cl)cnc2c1C` returned a melting point of 151 to 152 °C.

With `CC(N)C(=O)Nc1cc(OCC(F)(F)F)ccc1-c1cccnc1` (centres undefined), the melting point fell in the range of 135 to 140 °C.

On to `CCCCCCCCCCCCCCCCCC(=O)NCC(O)CO` (single isomer, unassigned; (+)), for which the melting point lay in the range of 112 to 114 °C.

The compound `CCC(=O)Oc1ccc(/C=C/C=C/C(=O)NCCN2CCC(c3c[nH]c4ccccc34)CC2)cc1OC` had a melting point of 157 to 158 °C.

`Cc1oc(-c2ccccc2)nc1CCOc1ccc(CCC2SC(=O)NC2=O)cc1` (centres undefined) yielded a melting point of 151 to 152 °C.

As for `CN1CCCC1=NC(=O)Nc1cccc(Br)c1`, the melting point lay in the range of 138 to 149 °C.

In turn, `O=C(O)Cc1ccc2c(c1)sc1c(Cl)cccc12` displayed a melting point of 226 to 228 °C.

In the case of `CSC(=NC(=O)Cc1ccccc1)N(C)N=Cc1ccccc1`, the melting point was in the range of 147 to 148 °C.

Compound `Cn1c(C=O)nnc1NCCCOc1cccc(CN2CCCCC2)c1` displayed a melting point of 157 to 158 °C.

The compound `COC(=O)c1cc2c3ccccc3n(CC3CC3)c2s1` yielded a melting point of 110 to 111 °C.

The compound `Cc1c(CC2=C(O)CCC2=O)ccc2ccccc12` yielded a melting point of 226 to 228 °C.

The compound `CSc1ccc(/C=C/C(=O)/C=C/C(=O)O)cc1` registered a melting point of 160 to 163 °C.

Compound `Nc1ncnc2c1ncn2OCCCCP(=O)(O)O` had a melting point of 265 to 268 °C.

`CN1C[C@@H]2c3cc(Cl)ccc3Oc3ccccc3[C@H]2C1=O` (relative stereo) returned a melting point of 148 °C.

Turning to `O=C(C=C1OC(=O)c2cccc(Cl)c21)c1ccccc1`, the melting point is 148 °C.

Consider `COc1cc(NS(C)(=O)=O)c(I)cc1N`, for which the melting point is 110 to 112 °C.

Compound `OC(=S)c1cc(C(F)(F)F)c(Cl)cc1Cl` yielded a melting point of 112 to 114 °C.

In turn, `CCSC(=O)c1c(C(F)(F)F)nc(C(F)F)c(C(=O)OC)c1NC(C)C` returned a melting point of 56 to 59 °C.

The compound `O=C(NC1(Cc2ccccc2)CCN(Cc2ccccc2)CC1)N1CCCC1` yielded a melting point of 126 °C.

`COC(=O)C1=C(C=O)NC(C)=C(C(=O)OCC(C)(C)C)C1c1ccccc1C#N` (centres undefined) displayed a melting point of 141 to 143 °C.

Take `Cc1cccc(C(=O)N2CCC3(CC2)CSC2=C(O3)c3ccccc3C(=O)C2=O)c1`: the melting point lay within 188 to 190 °C.

In turn, `CCCNC(=O)c1cncs1` showed a melting point of 86 °C.

Turning to `O=C1C=C(NC(=O)C(=O)c2cn(Cc3ccc(Cl)cc3)c3ccc([N+](=O)[O-])cc23)CO1`, the melting point was 248 to 250 °C.

`Cc1cc(=O)n2c3c(cc(C(O)(C(F)(F)F)C(F)(F)F)cc13)CC2`: the melting point is 337 to 338 °C.

The compound `COCOc1cccc(CN(C)c2cnc(-c3ccccc3)c(-c3ccccc3)n2)c1` yielded a melting point of 109 to 111 °C.

Consider `Cc1nnc(-c2ccc3occ(-c4ccc(OS(=O)(=O)C(F)(F)F)cc4)c3c2)o1`, for which the melting point was 136 to 137 °C.

Take `CC(C)(C)OC(=O)NC(COCc1ccccc1)c1nc2c(C(F)(F)F)cccc2c(O)c1C(=O)Nc1nccs1` (centres undefined): the melting point came out at 208 °C.

The compound `O=C(C1CCC(Nc2ncc3ncnc(Nc4ccc(F)c(Cl)c4)c3n2)CC1)N1CCNCC1` (centres undefined) displayed a melting point of 178 to 182 °C.

`O=C(c1cc(Br)ccc1[N+](=O)[O-])C(Br)C(Br)c1cccc(Br)c1` (centres undefined) displayed a melting point of 153 to 155 °C.

What is called melting point is the temperature of the solid-liquid transition.

The values above are taken from a melting point compilation (Tetko et al.; mined from patent text by program, amines drawn as free bases though some values may be those of a salt).
